Test results reported in patent EP0248858B1, “NOVEL PHOSPHO-COMPOUNDS AND M[…]” (Max-Planck-Gesellschaft zur Förderung der Wissenschaften …, priority 1985, dated 1987).

Test system: chemisch induzierten Mamma-Karzinomen
Assay: chemically induced mammary carcinoma of the rat, oral administration as drinking solution
Format: in vivo
Conditions: Ratten; for Remission von chemisch induzierten Mamma-Karzinomen: oral (Trinklösung), Tagesdosen von 20, 40 und 60 mg/kg Körpergewicht; for Verträglichkeit compared with 1-Octadecyl-2-methyl-rac-glycero-3-phospho-cholin / Wirksamkeit compared with 1-Octadecyl-2-methyl-rac-glycero-3-phospho-cholin: oral, comparison with 1-Octadecyl-2-methyl-rac-glycero-3-phospho-cholin
Description: Die erfindungsgemäßen Arzneimittel, welche als Wirkstoffe eine Verbindung der allgemeinen Formel I enthalten, besitzen eine ausgeprägte cytotoxische Wirksamkeit, die sowohl in vivo am chemisch induzierten Mamma-Karzinom der Ratte, als auch in vitro an Leukämiezellen in der Zellkultur nachgewiesen wurde. Darüberhinaus wurden in einer klinischen Pilotstudie bei Patientinnen mit Mamma-Karzinom Hautmetastasen zur vollständigen Abheilung bei topischer Anwendung gebracht.
Für die orale Verabreichung werden die Verbindungen der allgemeinen Formel I zweckmäßig in Form einer Trinklösung angewendet. Als Träger eignen sich beispielsweise Milch, Kakao, Fruchtsaft oder Trinkwasser. […] Bei dem für diese Versuche verwendeten Tumormodell handelt es sich um ein sogenanntes hartes Modell. Dies bedeutet, daß die an diesem Modell erstellten Befunde in den meisten Fällen auch auf die humane Situation übertragbar sind.

SMILES	Remission von chemisch induzierten Mamma-Karzinomen	Verträglichkeit compared with 1-Octadecyl-2-methyl-rac-glycero-3-phospho-cholin	Wirksamkeit compared with 1-Octadecyl-2-methyl-rac-glycero-3-phospho-cholin
CCCCCCCCCCCCCCCCOP(=O)([O-])OCC[N+](C)(C)C [Hexadecylphosphocholin]	vollständigen Remission	besser verträglich	besser wirksam
CCCCCCCC/C=C\CCCCCCCCOP(=O)([O-])OCC[N+](C)(C)C [Oleylphosphocholin]	vollständigen Remission	besser verträglich	besser wirksam
